Counter-ions that a name gives are not always drawn.
Legend:
NMDA receptor = target: T1, NMDA receptor (Rattus norvegicus, UniProt P35439+Q00960); experiment: 3H-[R-(R*,S*)]-a-(4-Hydroxy-phenyl)-b-methyl-4-(phenyl-methyl)-1-piperidine propanol binding (displacement, rat brain membranes); conditions: displacement of 5 nM 3H-radioligand, rat whole brain membranes minus cerebellum and medulla oblongata, 2 hours at 4° C.
T1 construct: Membranes were prepared by homogenization of the whole brain minus cerebellum and medulla oblongata; from tissue; host or cells: rat whole brain minus cerebellum and medulla oblongata, membranes
Procedure: ^3H-[R-(R*,S*)]-a-(4-Hydroxy-phenyl)-b-methyl-4-(phenyl-methyl)-1-piperidine propanol binding
Male Füllinsdorf albino rats weighing between 150-200 g were used. Membranes were prepared by homogenization of the whole brain minus cerebellum and medulla oblongata with a Polytron (10.000 rpm, 30 seconds), in 25 volume of a cold Tris-HCl 50 mM, EDTA 10 mM, pH 7.1 buffer. The homogenate was centrifuged at 48,000 g for 10 minutes at 4° C. The pellet was resuspended using the Polytron in the same volume of buffer and the homogenate was incubated at 37° C. for 10 minutes. After centrifugation the pellet was homogenized in the same buffer and frozen at −80° C. for at least 16 hours but not more than 10 days. For the binding assay the homogenate was thawed at 37° C., centrifuged and the pellet was washed three times as above in a Tris-HCl 5 mM, pH 7.5 cold buffer. The final pellet was resuspended in the same buffer and used at a final concentration of […] of protein/ml.
[R-(R*,S*)]-α-(4-Hydroxy-phenyl)-β-methyl-4-(phenyl-methyl)-1-piperidine propanol is a compound known to bind selectively to the NMDA receptor (J. Neurochem., Vol. 70., No. 5, 1998). ^3H-[R-(R*,S*)]-α-(4-Hydroxy-phenyl)-β-methyl-4-(phenyl-methyl)-1-piperidine propanol binding experiments were performed using a Tris-HCl 50 mM, pH 7.4 buffer. For displacement experiments 5 nM of 3H-[R-(R*,S*)]-a-(4-Hydroxy-phenyl)-b-methyl-4-(phenyl-methyl)-1-piperidine propanol were used and non specific binding was measured using 10 mM of tetrahydroisoquinoline and usually it accounts for 10% of the total. The incubation time was 2 hours at 4° C. and the assay was stopped by filtration on Whatmann GF/B glass fiber filters (Unifilter-96, Packard, Zürich, Switzerland). The filters were washed 5 times with cold buffer. The radioactivity on the filter was counted on a Packard Top-count microplate scintillation counter after addition of […] of microscint 40 (Canberra Packard S.A., Zürich, Switzerland).
The effects of compounds were measured using a minimum of 8 concentrations and repeated at least once. The pooled normalized values were analyzed using a non-linear regression calculation program which provide IC50 with their relative upper and lower 95% confidence limits.

T1 sequence (Q00960 27-1482, other chains not shown): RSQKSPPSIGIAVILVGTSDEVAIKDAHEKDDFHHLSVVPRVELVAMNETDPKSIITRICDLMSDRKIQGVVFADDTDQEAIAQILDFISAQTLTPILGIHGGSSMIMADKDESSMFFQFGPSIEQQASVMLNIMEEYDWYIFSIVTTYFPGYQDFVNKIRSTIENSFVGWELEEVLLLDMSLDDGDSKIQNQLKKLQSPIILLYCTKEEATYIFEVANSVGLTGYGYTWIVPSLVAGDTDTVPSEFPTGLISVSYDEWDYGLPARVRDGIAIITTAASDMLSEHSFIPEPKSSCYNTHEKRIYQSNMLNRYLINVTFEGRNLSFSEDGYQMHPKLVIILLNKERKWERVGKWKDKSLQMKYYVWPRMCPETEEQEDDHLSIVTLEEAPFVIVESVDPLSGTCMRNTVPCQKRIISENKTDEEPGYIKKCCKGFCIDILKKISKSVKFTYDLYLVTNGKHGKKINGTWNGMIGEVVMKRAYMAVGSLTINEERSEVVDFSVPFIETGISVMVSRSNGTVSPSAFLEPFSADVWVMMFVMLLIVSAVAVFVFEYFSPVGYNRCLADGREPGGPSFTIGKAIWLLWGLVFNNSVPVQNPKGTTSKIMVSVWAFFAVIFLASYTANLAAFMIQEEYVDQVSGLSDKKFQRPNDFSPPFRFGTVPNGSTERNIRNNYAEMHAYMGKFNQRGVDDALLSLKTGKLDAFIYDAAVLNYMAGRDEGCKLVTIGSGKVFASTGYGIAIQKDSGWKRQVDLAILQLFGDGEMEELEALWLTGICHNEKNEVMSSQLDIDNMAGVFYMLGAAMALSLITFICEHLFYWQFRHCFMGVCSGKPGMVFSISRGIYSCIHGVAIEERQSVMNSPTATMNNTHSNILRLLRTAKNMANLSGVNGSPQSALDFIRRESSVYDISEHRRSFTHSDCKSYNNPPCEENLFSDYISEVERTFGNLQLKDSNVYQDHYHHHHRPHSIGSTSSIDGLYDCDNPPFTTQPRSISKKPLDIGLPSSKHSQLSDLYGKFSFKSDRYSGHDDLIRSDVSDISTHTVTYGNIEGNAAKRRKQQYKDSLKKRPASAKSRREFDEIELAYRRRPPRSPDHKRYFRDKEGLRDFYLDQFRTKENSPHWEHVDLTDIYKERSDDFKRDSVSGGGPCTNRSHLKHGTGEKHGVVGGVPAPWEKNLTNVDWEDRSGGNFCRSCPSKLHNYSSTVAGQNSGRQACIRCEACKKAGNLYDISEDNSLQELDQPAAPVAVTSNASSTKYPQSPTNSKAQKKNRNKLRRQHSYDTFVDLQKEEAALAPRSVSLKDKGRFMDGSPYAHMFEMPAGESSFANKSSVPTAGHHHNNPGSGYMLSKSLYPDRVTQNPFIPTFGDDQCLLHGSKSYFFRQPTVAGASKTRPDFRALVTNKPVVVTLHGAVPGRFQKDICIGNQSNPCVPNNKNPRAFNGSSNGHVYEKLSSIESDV

Structure (SMILES)	melting point	IC50 (NMDA receptor)
COc1cccc2c(N3CCc4ccccc4C3)ccnc12.Cl	240 °C	
Cc1cc(N2CCc3ccccc3C2)c2ccccc2n1.Cl	210 to 211 °C	
Cl.Clc1ccc2c(c1)CN(c1ccnc3ccccc13)C2	270 to 275 °C	
Cl.c1ccc2c(c1)CN(c1ccnc3ccccc13)C2	264 to 267 °C	
OCCNc1cc(N2CCc3ccccc3C2)c2ccccc2n1 [Example 2, 2-[4-(3,4-Dihydro-1H-isoquinolin-2-yl)-quinolin-2-ylamino]-ethanol hydrochloride]		58 nM
Cl.O[C@@H]1CCN(c2cc(N3CCc4ccccc4C3)c3ccccc3n2)C1 [Example 4, (R)-1-[4-(3,4-Dihydro-1H-isoquinolin-2-yl)-quinolin-2-yl]-pyrrolidin-3-ol hydrochloride]	270 to 274 °C	170 nM
OC[C@H]1CCCN1c1cc(N2CCc3ccccc3C2)c2ccccc2n1 [Example 5, (R)-{1-[4-(3,4-Dihydro-1H-isoquinolin-2-yl)-quinolin-2-yl]-pyrrolidin-2-yl}-methanol]	74 to 80 °C	290 nM

Now from value to compound:

melting point	IC50 (NMDA receptor)	Structure (SMILES)
200 °C		Cl.c1ccc2c(c1)CCN(c1ccnc3ccccc13)C2
251 to 252 °C	190 nM	Cc1ccc2c(N3CCc4ccccc4C3)ccnc2c1.Cl [Example 13, 4-(3,4-Dihydro-1H-isoquinolin-2-yl)-7-methyl-quinoline hydrochloride]
	320 nM	Clc1ccc2c(N3CCc4ccccc4C3)ccnc2c1 [Example 15, 7-Chloro-4-(3,4-dihydro-1H-isoquinolin-2-yl)-quinoline hydrochloride]
	650 nM	Fc1cccc2c(N3CCc4ccccc4C3)ccnc12 [Example 16, 4-(3,4-Dihydro-1H-isoquinolin-2-yl)-8-fluoro-quinoline hydrochloride]
	890 nM	Fc1ccc2nccc(N3CCc4ccccc4C3)c2c1 [Example 18, 4-(3,4-Dihydro-1H-isoquinolin-2-yl)-6-fluoro-quinoline hydrochloride]

Source: patent publication US6339093B1, “Isoquinoline derivatives” (Hoffmann-la Roche Inc., priority 1999, dated 2002)
